According to patent US20180153886A1, “USE OF TR[…] PREPARATION OF DRUGS FOR PREVENTING AND TREATING LIVER DISEASES” (priority 2015, published 2018):

What was measured:
liver failure patients [1] = assay: Clinical trial involving 165 cases of liver failure, TMZ vs traditional therapeutic approach (general treatment); type: in vivo, human
[2] = in vivo; listed as trimetazidine, dihydrochloride; cited from earlier work
liver failure patients [3] = assay: Single-center cohort clinical trial, trimetazidine (TMZ) vs DCA control, liver function indicators ALT/AST; type: in vivo, human; conditions: after 5 days of treatment, FIG. 2
From the text: Evaluate if trimetazidine is capable of improving the liver function of patients with hepatic failure.
The single-center cohort study was adopted as the clinical trial method.
In accordance with relevant references and the results of previous trails, the number of cases shall be no less than 50. Taking into account the number of loss to follow up and possible drop-out (to be controlled around 10%), 60 cases are required to be selected (30 cases for the trial group and 30 cases for the control group).
All serious hepatitis patients enrolled between Aug. 19, 2014 and […] were put in the control group; and all those enrolled between December 9 and the application date were in the trial group.
2. Exclusion Criteria • Patients under 18 or over 70 years old; • patients diagnosed with shock liver (ischemic liver disease); • patients with liver failure in pregnance or HELLP syndrome; • patients with liver failure secondary to malignant tumor in the liver; • patients with refractory hypotension • patients with septic shock; • patients about to receive liver transplant (within 8 hours); • patients allergic to trimetazidine drug; • patients […] of trimetazidine drug; • abuser of drugs and/or alcohol; • pregnant or lactation women; • patients with recent myocardial infarct (within half a year); • patients with serious renal inadequacy.
2. Control group: Diisopropylamine Dichloroacetate (DCA) (80 mg/D) for the control group in this trial, provided by Dandong Yichuang Pharmaceutical Co., Ltd, for a 4-week course of treatment.
3. […] HBV-related liver failure patients were also treated with lamivudine.
1. Alanine aminotransferase (ALT), tested by chromatometry, with products provided by Roche Diagnostics (Shanghai) Ltd.
2. Aspartate transaminase (AST), tested by chromatometry, with products provided by Roche Diagnostics (Shanghai) Ltd.

[4] = test system: patients with liver failure / serious hepatitis; assay: Clinical cases: individual patients given oral TMZ on top of combined treatment; type: in vivo, human
From the text: Case 1: The patient had past positive HBsAg for over 20 years, during which they took multiple reexaminations of liver function and, as the results of all color ultrasound examinations were within normal range, they were not given any special treatment. Three months before, after catching cold and overwork, they developed abdominal distension and yellow urine, and was admitted to hospital following aggravation of the condition over 6 days. On admission, they were complicated with massive seroperitoneum and serious xanthochromia throughout the skin and mucosa of their whole body, feeling serious nausea, anorexia and feebleness.
Case 2: had had yellow urine for 25 days and dry mouth and bitter taste in mouth for 10 days before they came to the First Affiliated Hospital of Zhengzhou University. […] If they had been treated with the original approach, it would probably have taken two months before they could be discharged from hospital.
Case 3: had past positive HBsAg for 8 years, without regular treatment or periodic reexamination of relevant indicators. […] They took orally some “stomach medicine” (specific medicine not known) with poor effect. After the aforesaid symptoms aggravated for half a month, with urine turning as yellow as strong tea water, they were admitted to the First Affiliated Hospital of Zhengzhou University on Jan. 21, 2015. […] In merely 12 days, the patient achieved decrease of transaminase by dozens of times, relief from the critical condition, alleviated hepatocyte inflammatory responses and a favorable condition for liver cells, and greatly shortened length of hospitalization.
Case 4: […] They felt abdominal distension and nausea, accompanied with hydroncus in lower limbs, when they got tired half a month ago. For further treatment, they were admitted to the First Affiliated Hospital of Zhengzhou University on Jan. 13, 2015. Color ultrasound examination of abdomen detected diffuse changes of echo patterns of liver, cholecystolithiasis and cholecystitis. […] The patient's liver enzyme decreased to normal level after a short period, meeting the requirements for a surgical operation. Following the operation, their abdominal pain disappeared, with liver enzyme back to normal level and improved appetite. Their quality of life improves now without any discomfort.
Case 5: had past positive HBsAg for over 10 years, with HBsAg (+), HBeAg (+) and HBcAb (+), and had atrial fibrillation over 5 years, during which they orally took traditional Chinese medicine intermittently, but without regular treatment. They complained of feebleness, nausea, dry mouth and bitter taste, and anorexia for 6 days, and was hospitalized on Jan. 31, 2015. After admission, they had ALT 1881 u/L, AST 699 u/L, and prothrombin time activity (PTA) at 26%. The patient was extremely weak, in very poor spirits, with very poor appetite. A notice of critical illness diagnosis was given. […] The patient achieved a rapid decrease of transaminase and obvious improvement of liver synthesis function, and was safe from the critical condition. They continued to take the medicine till maturity of the treatment course, to improve the hepatocyte microcirculation and excretion of bilirubin. The patient soon recovered and left hospital.

[5] = Case 5, one week plus another 5 days of TMZ

**Q.** With `COc1ccc(CN2CCNCC2)c(OC)c1OC.Cl.Cl` [TMZ, 1-[2,3,4-trimethoxybenzyl] piperazine dihydrochloride] as the compound, how does the 30-day immortality rate (liver failure patients [1]; TMZ 20 mg tablet orally 3 times a day, 4 weeks, traditional therapeutic approach 44%, FIG. 5) read?
**A.** approximately 18%

**Q.** What about the 90-day immortality rate (liver failure patients [1]; TMZ 20 mg tablet orally 3 times a day, 4 weeks, traditional therapeutic approach 68%, FIG. 5) of the same compound?
**A.** 35%

**Q.** What about the “decrease rate of alanine aminotransferase and aspartate transaminase” value (liver failure patients [1]; laboratory test indicators, FIG. 3) of the same compound?
**A.** significantly raise the decrease rate

**Q.** And the “serious adverse reaction during the clinical trial” value (liver failure patients [1]; liver failure patients)?
**A.** no serious adverse reaction occurred

**Q.** What about the “hepatic glucose metabolism (PET-CT)” value (liver failure patients [1]; one liver failure patient, before vs after taking TMZ, FIG. 4) of the same compound?
**A.** remarkably improved

**Q.** And the elimination half-life [2]?
**A.** approximately 6 hours

**Q.** What about the “ALT decrease (k, mathematical model analysis)” value (liver failure patients [3]) of the same compound?
**A.** 259.4

**Q.** What about the “AST decrease (k, mathematical model analysis)” value (liver failure patients [3]) of the same compound?
**A.** 362.53

**Q.** And the AST ([4]; Case 1, 12 days after start of TMZ, on admission AST 303 u/L)?
**A.** 68 u/L

**Q.** And the ALT ([4]; Case 1, HBsAg positive, 12 days after start of TMZ 1 tablet 3 times a day, on admission ALT 270 u/L)?
**A.** 41 u/L

**Q.** And the total bilirubin ([4]; Case 2, oral TMZ for 20 days, on admission 401.9 umol/L)?
**A.** 130 µmol/L

**Q.** What about the AST ([4]; Case 2, oral TMZ for 20 days, on admission AST 484 u/L) of the same compound?
**A.** 52 u/L

**Q.** What about the ALT ([4]; Case 2, serious drug-induced hepatitis, oral TMZ for 20 days, on admission ALT 983 u/L) of the same compound?
**A.** 95 u/L

**Q.** And the ALT ([4]; Case 3, acute-on-chronic liver failure, admitted Jan. 21, 2015, reexamination February 5, on admission ALT 1386 u/L)?
**A.** 76 u/L

**Q.** And the “prothrombin time activity (PTA)” value ([4]; Case 3, reexamination February 5, on admission 27.4%)?
**A.** 57.8%

**Q.** And the AST ([4]; Case 3, reexamination February 5, on admission AST 1368 u/L)?
**A.** 85 u/L

**Q.** And the ALT ([4]; Case 4, HBsAg positive, oral TMZ for 13 days, on admission ALT 599 u/L)?
**A.** 66 u/L

**Q.** What about the AST ([4]; Case 4, oral TMZ for 13 days, on admission AST 663 u/L) of the same compound?
**A.** 79 u/L

**Q.** What about the “prothrombin time activity (PTA)” value ([4]; Case 5, one week after start of oral TMZ, after admission 26%) of the same compound?
**A.** 48%

**Q.** And the ALT ([4]; Case 5, one week after start of oral TMZ, after admission ALT 1881 u/L)?
**A.** 255 u/L

**Q.** What about the AST ([4]; Case 5, one week after start of oral TMZ, after admission AST 699 u/L) of the same compound?
**A.** 77 u/L

**Q.** What about the ALT [4, 5] of the same compound?
**A.** 117 u/L

**Q.** What about the AST [4, 5] of the same compound?
**A.** 226 u/L

**Q.** And the “prothrombin time activity (PTA)” value [4, 5]?
**A.** 50%

**Q.** Which results are given for Diisopropylamine Dichloroacetate [DCA]?
**A.** ALT decrease (k, mathematical model analysis) (liver failure patients [3]): 67.325; AST decrease (k, mathematical model analysis) (liver failure patients [3]): 142.77
